Reference: patent US12668803B2, “Glypican-3-specific modified aptamer and use thereof” (APTAMER SCIENCES INC., priority 2019, dated 2026)

What was measured:
[1] = tested on: hepatoma cells (Hep3B, HepG2); test: Cell cycle analysis (propidium iodide, FACS); assay type: cell-based; conditions: 4 hr treatment, FIGS. 25 and 26
Description: (§1) To analyze the effects of combi 4 and combi 5 bound with three or five gemcitabines on the cell cycle of hepatoma cells, cell cycle analysis was performed. In detail, Hep3B, HepG2, and A431 cells were seeded in a 6-well plate at a density of 1×10^6/ml, and cultured using a DMEM medium containing 10% FBS and 1% antibiotics (penicillin/streptomycin) under conditions of 5% CO2 and 37° C., respectively. Next day, 100 μM of the modified aptamer stock was mixed with 5×SB18 buffer to prepare the aptamer at a concentration of 80 μM, and heated at 95° C. for 5 min, and then cooled at room temperature for 15 min or more. The medium was removed from the cultured cells, and replaced by a serum-free medium, and cultured under conditions of 37° C. and 5% CO2 for 1 hr. The serum-free medium was removed, and then the cells were washed with 2 ml of 1×PBS. 2 ml of KRPH buffer was added, and cultured under conditions of 37° C. and 5% CO2 for 1 hr. The aptamer was added, and cultured under conditions of 37° C. and 5% CO2 for 4 hr. The KRPH buffer was removed, and 2 ml of 1×PBS was added thereto to perform washing, and then PBS was removed. 2 ml of 1×PBS was added, and cells were scraped using a scraper, and collected in FACs tubes, followed by centrifugation at 4° C. and 2000 rpm for 4 minutes. 1/500-fold diluted RNAase A and propidium iodide diluted with PBS at a concentration of 50 μg/ml were added to the FACs tubes at a volume of 500 μL, followed by pipetting. Incubation was performed at room temperature for 30 min while blocking the light, and then cell cycle was measured.

[2] = tested on: squamous cell carcinoma cells (A431); test: Cell cycle analysis (propidium iodide, FACS); assay type: cell-based; conditions: 4 hr treatment, FIG. 27
Description: as §1

[3] = Serum stability analysis (urea PAGE); assay type: in vitro ADME, human
Description: To examine whether 12-12, combi 5 aptamer, combi 4 and combi 5 modified aptamers bound with three or five gemcitabines are stable in the human serum, serum stability was analyzed. In detail, 10 μL of […] was added to 100% human serum, followed by incubation at 37° C. for 0 hr, 1 hr, 3 hr, 6 hr, 12 hr, and 24 hr. After incubation, 5 μL of […] was added, and distilled water was added to a volume of 250 μL. 250 μL of phenol:chloroform:isoamyl alcohol (25:24:1) was added in the equal volume, followed by stirring. Each sample was centrifuged at 16000×g for 10 min. The supernatant was transferred to a new tube, and completely dried. The resultant was diluted with 5× sample buffer and distilled water, and boiled at 95° C. for 5 min, and cooled. The sample was separated by urea PAGE (Polyacrylamide gel Electrophoresis) at 220 V for 25 min, and then stained with SYBR gold and examined using a Gel Doc™ EZ system.

Huh 7 cells = test: Cell binding analysis of Cy5-labeled aptamers (FACS); assay type: cell-based; conditions: three vs five gemcitabines bound, method of Example 2-1, FIG. 19
Description: The 12-10 aptamer and 5 aptamer libraries prepared by truncating the 12-10 aptamer at various lengths [12-10 (40-mer), 12-12 (35-mer), 12-11 (29-mer), 12-13 (24-mer), 12-14 (23-mer), 12-15 (18-mer)] were subjected to cell binding analysis. Each aptamer sequence was labeled with Cy5 at the 5′ end thereof according to the method of Example 1-1. Huh 7 cells (ATCC, Rockville, MD, USA) were seeded at a density of 2×10^6/mL in a 100 mm^2 culture plate, and cultured using a DMEM medium (Gibco, Grand Island, NY, USA) containing 10% FBS (Gibco, Grand Island, NY, USA) and 1% antibiotics (penicillin/streptomycin) under conditions of 5% CO2 and 37° C. 5 μM of the aptamer stock was mixed with 5×SB18 buffer to prepare the aptamer at a concentration of 4 μM, and heated at 95° C. for 5 min, and then cooled at room temperature for 15 min or more. 4 μM of the aptamer was diluted with KRPH buffer (20 mM HEPES, 5 mM KH2PO4, 1 mM MgSO4, 1 mM CaCl2, 136 mM NaCl, 4.7 mM KCl, pH 7.4) at a concentration of 25 nM. The culture medium was removed from the cultured cells, and 4 mL of phosphate-buffered saline (PBS) was added thereto, followed by washing, and then 4 mL of PBS was removed. 4 mL of cold PBS or warm PBS was added, and cells were scraped using a scraper, and collected in tubes, followed by pipetting. The cells were divided and added to fluorescence-activated cell sorting (FAC) tubes according to the number of samples, followed by centrifugation at 4° C. and 2000 rpm for 4 min. After removing the supernatant, each 500 μL of 25 nM aptamer and control (31-08 (40-mer) aptamer) were added to […] of KRPH buffer, followed by pipetting. The tube was covered with foil to block the light, followed by incubation at 4° C. for 30 min. After incubation, centrifugation was performed at 4° C. and 2000 rpm for 4 min, and the supernatant was removed. 2 mL of cold 1×PBS was added, washed, centrifuged at 4° C. and 2000 rpm for 4 min, and the supernatant was removed. This process was repeated three times. […] Cy5 was measured at […]. […]

Question: What does the source list for “Combi 5 G(3) (DNA GNGAANGCGNNGAANNANWYSSSNNCAGNCANCAC; gemcitabines, 2'-OMe, 2'-F, BzdU, 3' idT; Combi 5 G(3); (1)..(1) G is 2-O-Methoxy-DNA.; (2)..(2) n is BzdU.; (3)..(3) G is 2-O-Methoxy-DNA.; (4)..(4) A is 2-Fluorine-DNA.; (5)..(5) A is 2-Fluorine-DNA.; (6)..(6) n is BzdU.; (10)..(10) n is BzdU.; (11)..(11) n is BzdU.; (12)..(12) G is 2-Fluorine-DNA.; (13)..(13) A is 2-Fluorine-DNA.; (14)..(14) A is 2-O-Methoxy-DNA.; (15)..(15) n is BzdU.; (16)..(16) n is BzdU.; (17)..(17) A is 2-O-Methox)”?
Answer: cell cycle arrest [1]: arrested hepatoma cells at the G1/S phase; cell cycle arrest [2]: no cell cycle arrest; half-life in the human serum ([3]; 100% human serum, 37° C., FIG. 28): about 64 hr; improvement of serum half-life compared with 12-12 aptamer ([3]; human serum): ≥ 10 times; cell binding ability (Huh 7 cells): excellent cell binding ability
